Where no end group is shown, it is not given here. Peg = not defined here
How the values were obtained:
Assay type in all cases: binding
[1] = test system: 53BP1 TTD; assay: Histone peptide microarray, 53BP1 TTD; conditions: 53BP1 TTD hits, average signal per peptide
Procedure: (§1) Peptide microarrays were fabricated using an Aushon 2470 microarrayer and used as described ([Cornett et al., 2017]) with the following modifications. Protein and antibody hybridization steps were performed in buffer containing 25 mM HEPES pH 7.5, 100 mM NaCl, 0.5% BSA (w/v), and 0.1% NP-40. Slides were washed 3 × 5 min in PBS supplemented with 0.1% Tween-20 between each hybridization step. Antibodies used were primary anti-GST (Sigma #7781, 1:2,000 dilution) and an AlexaFluor 647-labeled secondary antibody (Life Technologies A-21245, 1:5,000 dilution). […] Full lists of peptides queried by array analysis are in Supplementary Table S2.

[2] = test system: Abcam #ab8895, anti-H3K4me1; assay: Histone peptide microarray, Abcam ab8895; conditions: Abcam ab8895 (anti-H3K4me1) hits, average signal per peptide
Procedure: as §1

[3] = test system: Active Motif #39161, anti-H3K9me3; assay: Histone peptide microarray, Active Motif 39161; conditions: Active Motif 39161 (anti-H3K9me3) hits
Procedure: as §1

[4] = test system: CST 9733 (anti-H3K27me3); assay: Histone peptide microarray, CST 9733; conditions: histone peptide array signal normalized to the highest peptide average per subarray, hits; CST 9733 LOT:14 dilution 1:5,000
Procedure: as §1

[5] = test system: Millipore #07-449, anti-H3K27me3; assay: Histone peptide microarray, Millipore 07-449; conditions: Millipore 07-449 (anti-H3K27me3) hits, average signal per peptide
Procedure: as §1

## AR(Me2a)TK(Ac)QTARK(Ac)STGGK(Ac)APRK(Ac)QL-K(Biot)-NH2 [H3.1R2me2aK4acK9acK14acK18ac]
[1]
  Avg Signal: 0.1712
[2]
  Avg Signal: 0.0001948
[3]
  Avg Signal: 0.00047

## ARTK(Ac)QTARKSTGGK(Ac)APRKQL-K(Biot)-NH2 [H3.1K4acK14ac]
[1]
  Avg Signal: 0.2064
[2]
  Avg Signal: 0.001132
[3]
  Avg Signal: 0.0007938

## ARTK(Me3)QTARKST-Peg-Biot [H3.1K4me3 H3.1(1-11)]
[4]
  Avg Signal: 1.495e-5

## ARTK(Me3)QTARKSTGGKAPRKQL-K(Biot)-NH2 [H3.1K4me3 H3.1(1-20)]
[4]
  Avg Signal: 0.001817

## ARTKQTAR(Me)KSTGGKAPRKQL-Peg-Biot (chain 2 KSTGGKAPRKQL-{Peg-Biot}; not fully specified; reading uncertain) [Peptide H3.1R8me1]
[2]
  Avg Signal: 0.1046
[4]
  Avg Signal: 0.01735

## ARTKQTAR-NleSTGGKAPRKQL-Peg-Biot [Peptide H3.1K9-Nle]
[5]
  Avg Signal: 0.001582
[2]
  Avg Signal: 0.1441
[4]
  Avg Signal: 0.0002703

## ARTKQTARK(Ac)STGGKAPRK(Ac)QL-K(Biot)-NH2 [H3.1K9acK18ac]
[5]
  Avg Signal: 0.006063
[1]
  Avg Signal: 0.0364
[2]
  Avg Signal: 0.2595
[3]
  Avg Signal: 0.0006444

## ARTKQTARK(Ac)STGGKAPRKQL-K(Biot)-NH2 (not fully specified; K9 acetyl; K(Biot)-NH2) [Peptide H3.1K9ac]
[1]
  Avg Signal: 0.1022
[2]
  Avg Signal: 0.168
[3]
  Avg Signal: 0.0003455

## ARTKQTARK(Me2)pSTGGKAPRKQL-K(Biot)-NH2 [H3.1K9me2S10p]
[1]
  Avg Signal: 0.3509
[2]
  Avg Signal: 0.1568

## ARTKQTARK(Me)pSTGGKAPRKQL-K(Biot)-NH2 [H3.1K9me1S10p]
[1]
  Avg Signal: 0.1506
[2]
  Avg Signal: 0.1234

## ARTKQTARKSTGGK(Ac)APRK(Ac)QL-K(Biot)-NH2 [H3.1K14acK18ac]
[1]
  Avg Signal: 0.1587
[2]
  Avg Signal: 0.1741

## ARTKQTARKpSTGGKAPRKQL-K(Biot)-NH2 [Peptide H3.1S10p]
[5]
  Avg Signal: 0.004546
[1]
  Avg Signal: 0.0218
[2]
  Avg Signal: 0.06974

## ARTKQpTAR(Me2a)K(Me3)STGGKAPRKQL-K(Biot)-NH2 [H3.1T6pR8me2aK9me3]
[5]
  Avg Signal: 0.006631
[4]
  Avg Signal: 0.008944
[3]
  Avg Signal: 0.6906

## ARTKQpTARKSTGGKAPRKQL-K(Biot)-NH2 [Peptide H3.1T6p]
[1]
  Avg Signal: 0.07045
[2]
  Avg Signal: 0.0003583
[3]
  Avg Signal: 0.0005946

## ATKAARKSAPATGGVK(Me3)KPHRYRPG-GK(Biotin)-OH [H3.1K36me3 H3.1(21-44)]
[4]
  Avg Signal: 0.0006093

## Ac-APRKQLATK(Ac)AARKSAPSTGG-Peg-Biot [Peptide H3.3K23ac]
[4]
  Avg Signal: 0.0001716
[3]
  Avg Signal: 0.006441

## Ac-APRKQLATKAAR(Me2a)KSAPSTGG-Peg-Biot [Peptide H3.3R26me2a]
[5]
  Avg Signal: 0.001966
[4]
  Avg Signal: 0.0004634
[3]
  Avg Signal: 0.01154

## Ac-APRKQLATKAARK(Ac)pSAPSTGG-Peg-K(Biot)-NH2 [H3.3K27acS28p]
[5]
  Avg Signal: 0.0005992
[4]
  Avg Signal: 0.0002202
[3]
  Avg Signal: 0.002338

## Ac-APRKQLATKAARK(Me3)pSAPSTGG-Peg-Biot [H3.3K27me3S28p]
[5]
  Avg Signal: 0.1105
[4]
  Avg Signal: 0.1559
[3]
  Avg Signal: 0.0007938

## Ac-APRKQLATKAARK(Me)SAPSTGG--Peg-Biot [Peptide H3.3K27me1]
[5]
  Avg Signal: 0.003394
[1]
  Avg Signal: 0.1127
[2]
  Avg Signal: 0.01351

## Ac-GK(Ac)GGAK(Ac)RHRK(Me2)VLRDNIQ-Peg-Biot [H4K12acK16acK20me2]
[4]
  Avg Signal: 0.0001487

## Ac-GK(Ac)GGAK(Ac)RHRK(Me)VLRDNIQ-Peg-Biot [H4K12acK16acK20me1]
[5]
  Avg Signal: 0.001642
[4]
  Avg Signal: 0.0009983
[3]
  Avg Signal: 0.005445

## Ac-GK(Ac)GGAK(Ac)RHRKVLRDNIQ-Peg-Biot [H4K12acK16ac H4(11-27)]
[4]
  Avg Signal: 3.787e-5

## Ac-GKGGAKRHRK(Me)VLRDNIQ-Peg-Biot [Peptide H4K20me1]
[1]
  Avg Signal: 0.5244
[2]
  Avg Signal: 0.003452
[3]
  Avg Signal: 7.157e-5

## Ac-RRYQKSTELL-Peg-Biot [H3.1.1(52-61)]
[5]
  Avg Signal: 0.0002743
[4]
  Avg Signal: 3.787e-5
[3]
  Avg Signal: 0.0005198

## Ac-SAAKASQSRSAKAGLT-Peg-Biotin [yH2A(10-25)]
[4]
  Avg Signal: 6.218e-5

## Ac-SGR(Me2a)GK(Ac)QGGKARAKAKTR-Peg-Biot [H2AR3me2aK5ac]
[1]
  Avg Signal: 0.03444
[2]
  Avg Signal: 0.0107
[3]
  Avg Signal: 0.03211

## Ac-SGRGK(Ac)GGK(Ac)GLGK(Ac)GGAK(Ac)RHRKVLR-Peg-Biot [H4K5acK8acK12acK16ac]
[1]
  Avg Signal: 0.1158
[2]
  Avg Signal: 0.005523

## Ac-SGRGK(Ac)GGKGLGKGGAKRHRKVLR-Peg-Biot [Peptide H4K5ac]
[1]
  Avg Signal: 0.009315
[2]
  Avg Signal: 0.0009033
[3]
  Avg Signal: 0.04019

## Ac-SGRGK(Ac)TGGKARAKAKSR-Peg-Biotin [Peptide H2A.XK5ac]
[4]
  Avg Signal: 0.0001351

## Ac-SGRGK(But)GGK(But)GLGK(But)GGAKRHRKVLR-Peg-Biot [H4K5butK8butK12but]
[5]
  Avg Signal: 0.01591
[2]
  Avg Signal: 0.000718
[4]
  Avg Signal: 0.0001351
[3]
  Avg Signal: 0.01514

## Ac-SGRGK(Me)GGK(Ac)GLGK(Ac)GGAK(Ac)RHRKVLR-Peg-Biot [H4K5me1K8acK12acK16ac]
[5]
  Avg Signal: 0.002528
[2]
  Avg Signal: 0.01497
[4]
  Avg Signal: 1.398e-6
[3]
  Avg Signal: 0.0048

## Ac-SGRGKGGK(Ac)GLGKGGAK(Ac)RHRKVLR-Peg-Biot [Peptide H4K8acK16ac]
[1]
  Avg Signal: 0.2331
[2]
  Avg Signal: 0.002102
[3]
  Avg Signal: 0.003751

## Ac-SGRGKGGK(Ac)GLGKGGAKRHRKVLR-Peg-Biot [Peptide H4K8ac]
[1]
  Avg Signal: 0.08696
[2]
  Avg Signal: 0.01217
[3]
  Avg Signal: 0.001167

## Ac-SGRGKGGKGLGK(Ac)GGAK(Ac)RHRKVLR-Peg-Biot [H4K12acK16ac H4(1-23)]
[4]
  Avg Signal: 3.927e-5

## Ac-SGRGKTGGKARAKAKSR-Peg-Biotin [H2A.X(1-17)]
[4]
  Avg Signal: 3.787e-5
[3]
  Avg Signal: 0.0004918

## Ac-pSGCitGK(Ac)QGGKARAKAKTR-Peg-Biot [H2AS1pCit3K5ac]
[5]
  Avg Signal: 0.006425
[1]
  Avg Signal: 0.04418
[2]
  Avg Signal: 0.004421
[3]
  Avg Signal: 0.0032

## H3.1.1(15-34) H3.1(15-34): arrayed peptide ID 202 or 2551; same annotation and length
[4]
  Avg Signal: 0.0005485

## KSAPSTGGVK(Me3)KPHRYRPGTV-K(biotin)-NH2 [H3.3K36me3 H3.3(27-46)]
[4]
  Avg Signal: 0.00263

## PEPAK(Me)SAPAPKKGSKKAVTKAQKK-Peg-Biot [Peptide H2BK5me1]
[5]
  Avg Signal: 0.01581
[1]
  Avg Signal: 0.1012
[2]
  Avg Signal: 0.004522
[3]
  Avg Signal: 0.004346

## PRRRRRRGSSGAGGRGRTCS-Peg-Biot [Peptide H2A.B]
[4]
  Avg Signal: 0

## pSGRGK(Ac)QGGK(Ac)ARAK(Ac)AK(Ac)TR-Peg-Biot [H2AS1pK5acK9acK13acK15ac(noN-ac)]
[5]
  Avg Signal: 0.001023
[1]
  Avg Signal: 0.06769
[2]
  Avg Signal: 0.0006853
